Here are results for 23 molecules from patent US11951094B2, “TLR2 modulator compounds, pharmaceutical compositions and uses thereof” (Axial Therapeutics, Inc., priority 2020, dated 2024).

pEC50: −log10 of the molar value. A value given as a limit tells only on which side of the number the result lay.

Sequence of TLR2 (O60603 21-784): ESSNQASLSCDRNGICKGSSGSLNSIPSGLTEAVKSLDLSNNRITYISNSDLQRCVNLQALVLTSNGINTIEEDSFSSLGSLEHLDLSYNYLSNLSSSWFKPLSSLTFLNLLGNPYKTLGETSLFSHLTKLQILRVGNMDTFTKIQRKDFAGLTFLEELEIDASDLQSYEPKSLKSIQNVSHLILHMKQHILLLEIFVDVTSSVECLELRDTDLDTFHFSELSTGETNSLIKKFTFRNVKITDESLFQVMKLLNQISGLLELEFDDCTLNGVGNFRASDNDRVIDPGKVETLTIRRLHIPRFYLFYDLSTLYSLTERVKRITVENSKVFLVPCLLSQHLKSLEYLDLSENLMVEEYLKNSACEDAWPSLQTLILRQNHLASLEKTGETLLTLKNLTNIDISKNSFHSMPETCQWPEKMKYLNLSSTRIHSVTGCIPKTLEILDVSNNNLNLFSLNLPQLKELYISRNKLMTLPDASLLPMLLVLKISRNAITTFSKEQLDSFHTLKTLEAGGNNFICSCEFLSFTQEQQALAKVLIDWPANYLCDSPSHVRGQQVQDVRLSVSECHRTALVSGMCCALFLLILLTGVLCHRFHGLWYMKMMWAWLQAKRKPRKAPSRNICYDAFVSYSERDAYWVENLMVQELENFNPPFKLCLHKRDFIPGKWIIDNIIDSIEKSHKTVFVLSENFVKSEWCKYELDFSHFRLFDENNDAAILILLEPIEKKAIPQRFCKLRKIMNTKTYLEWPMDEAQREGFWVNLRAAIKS

The first experiment has as its target TLR2 (Homo sapiens, UniProt O60603). Description: TLR2 agonist screening assay, HEK-Blue TLR2 reporter cell line (NF-kB-driven SEAP, absorbance at 600 nm). It counts as cell-based. More on the design: host or cells: HEK-293 (HEK-Blue TLR2 reporter cell line). The following applies: HEK-Blue TLR2 reporter cells, agonist mode; average of all runs (Table 3). In outline:
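EC50 values come from dilution series of agonist on TLR2-transfected HEK-293 reporter cells carrying an NF-kB-SEAP construct. Cells sat overnight with compound in substrate-containing Detection medium at 1% DMSO, and secreted phosphatase activity was quantified as absorbance at 600 nm.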
The term pEC50 denotes the EC50 on a negative log10 scale, so that one unit is a factor of ten. A lower pEC50 goes with a high EC50. `CCCCCCNC(=O)[C@H](CCNC(=O)CCCCCC)NC(=O)c1ccc(C(=O)N2C[C@@H](C(=O)N[C@H]3C[C@@H]3c3ccccc3)[C@H](C(=O)N[C@H]3C[C@@H]3c3ccccc3)C2)cc1` [Compound 021]: the negative-log EC50 (pEC50) was below 6.00. The same measure, in the same setting: as for `CCCCCCCCOC1CN(C(=O)c2ccc(C(=O)N3C[C@@H](C(=O)N[C@H]4C[C@@H]4c4ccccc4)[C@H](C(=O)N[C@H]4C[C@@H]4c4ccccc4)C3)cc2)C[C@H]1OCCCCCCCC` (some centres unmarked) [Compound 020], the figure is below 6.00. For the molecule `CCCCCCNC(=O)C[C@H](NC(=O)c1ccc(C(=O)N2C[C@@H](C(=O)N[C@H]3C[C@@H]3c3ccccc3)[C@H](C(=O)N[C@H]3C[C@@H]3c3ccccc3)C2)cc1)C(=O)NCCCCCC` [Compound 014], the pEC50 was below 6.00.

Molecule `CCCCCCN(CCCCCC)C(=O)[C@H]1CCN(C(=O)c2ccc(C(=O)N3C[C@@H](C(=O)N[C@H]4C[C@@H]4c4ccccc4)[C@H](C(=O)N[C@H]4C[C@@H]4c4ccccc4)C3)cc2)C1` [Compound 009] had a pEC50 below 6.00. `CCCCCCNC(=O)[C@@H]1CN(C(=O)c2ccc(C(=O)N3C[C@@H](C(=O)N[C@H]4C[C@@H]4c4ccccc4)[C@H](C(=O)N[C@H]4C[C@@H]4c4ccccc4)C3)cc2)C[C@H]1NC(=O)CCCCCC` [Compound 039] showed a pEC50 below 6.00. The molecule `CCCCCCNC(=O)C1CN(C(=O)c2ccc(C(=O)N3C[C@@H](C(=O)N[C@H]4C[C@@H]4c4ccccc4)[C@H](C(=O)N[C@H]4C[C@@H]4c4ccccc4)C3)cc2)CCN1C(=O)NCCCCCC` (some centres unmarked) [Compound 049] gave a pEC50 below 6.00. In turn, `CCCCCCNC(=O)[C@@H]1C[C@H](C(=O)NCCCCCC)CN(C(=O)c2ccc(C(=O)N3C[C@@H](C(=O)N[C@H]4C[C@@H]4c4ccccc4)[C@H](C(=O)N[C@H]4C[C@@H]4c4ccccc4)C3)cc2)C1` (relative stereo) [Compound 038, (3R*,5S*)-1-(4-((3S,4S)-3,4-bis(((1S,2R)-2-phenylcyclopropyl)carbamoyl)pyrrolidine-1-carbonyl)benzoyl)-N3,N5-dihexylpiperidine-3,5-dicarboxamide] gave a pEC50 of 6.00 to 6.45.

Staying with this experiment, now noted: HEK-Blue TLR2 reporter cells, agonist mode; average of all runs (Table 4).
In turn, `CCCCCCCO[C@@H]1CN(C(=O)c2ccc(C(=O)N3C[C@@H](C(=O)N[C@H]4C[C@@H]4c4ccccc4)[C@H](C(=O)N[C@H]4C[C@@H]4c4ccccc4)C3)cc2)C[C@H]1NC(=O)CCCCCC` [Compound 155, (3S,4S)-1-(4-((3R,4R)-3-heptanamido-4-(heptyloxy)pyrrolidine-1-carbonyl)benzoyl)-N3,N4-bis((1S,2R)-2-phenylcyclopropyl)pyrrolidine-3,4-dicarboxamide] gave a pEC50 below 6.00. `CCCCCCCCCCCCCCN1C(=O)CNC(=O)[C@@H]1CNC(=O)c1ccc(C(=O)N2C[C@@H](C(=O)N[C@H]3C[C@@H]3c3ccccc3)[C@H](C(=O)N[C@H]3C[C@@H]3c3ccccc3)C2)cc1` [Compound 147, (3S,4S)-1-(4-((((S)-3,6-dioxo-1-tetradecylpiperazin-2-yl)methyl)carbamoyl)benzoyl)-N3,N4-bis((1S,2R)-2-phenylcyclopropyl)pyrrolidine-3,4-dicarboxamide] showed a pEC50 below 6.00. For `CCCCCCCC[C@H]1CN(C(=O)c2ccc(C(=O)N3C[C@@H](C(=O)N[C@H]4C[C@@H]4c4ccccc4)[C@H](C(=O)N[C@H]4C[C@@H]4c4ccccc4)C3)cc2)C[C@@H]1C(=O)NCCCCCC` (single isomer, unassigned) [Compound 112], the pEC50 was 6.46 to 7.29.

`CCCCCCC(=O)N[C@@H](CNC(=O)c1ccc(C(=O)N2C[C@@H](C(=O)N[C@H]3C[C@@H]3c3ccccc3)[C@H](C(=O)N[C@H]3C[C@@H]3c3ccccc3)C2)cc1)C(=O)N[C@H]1C[C@@H]1c1ccccc1` [Compound 143, (3S,4S)-1-(4-(((S)-2-heptanamido-3-oxo-3-(((1S,2R)-2-phenylcyclopropyl)amino)propyl)carbamoyl)benzoyl)-N3,N4-bis((1S,2R)-2-phenylcyclopropyl)pyrrolidine-3,4-dicarboxamide] had a pEC50 of 6.46 to 7.29.

Molecule `CCCCCCCO[C@@H]1CN(C(=O)c2ccc(C(=O)N3C[C@@H](C(=O)N[C@H]4C[C@@H]4c4ccccc4)[C@H](C(=O)N[C@H]4C[C@@H]4c4ccccc4)C3)cc2)C[C@@H]1C(=O)NCCCCCC` (relative stereo) [Compound 116, (3S,4S)-1-(4-((3S*,4S*)-3-(heptyloxy)-4-(hexylcarbamoyl)pyrrolidine-1-carbonyl)benzoyl)-N3,N4-bis((1S,2R)-2-phenylcyclopropyl)pyrrolidine-3,4-dicarboxamide] gave a pEC50 of 6.00 to 6.45. As to `CCCCCCNC(=O)[C@H](CNC(=O)c1ccc(C(=O)N2C[C@@H](C(=O)N[C@H]3C[C@@H]3c3ccccc3)[C@H](C(=O)N[C@H]3C[C@@H]3c3ccccc3)C2)cc1)NC(=O)NCc1ccc(F)cc1` [Compound 186, (3S,4S)-1-(4-(((S)-2-(3-(4-fluorobenzyl)ureido)-3-(hexylamino)-3-oxopropyl)carbamoyl)benzoyl)-N^3,N^4-bis((1S,2R)-2-phenylcyclopropyl) pyrrolidine-3,4-dicarboxamide], the pEC50 was 7.30 to 10.00. For `CCCCCCCCCC(=O)NC(Cn1cnc2ccc(C(=O)N3C[C@@H](C(=O)N[C@H]4C[C@@H]4c4ccccc4)[C@H](C(=O)N[C@H]4C[C@@H]4c4ccccc4)C3)cc2c1=O)C(=O)NCCCCCC` (stereo partly drawn) [Compound 248, (3S,4S)-1-(3-(2-decanamido-3-(hexylamino)-3-oxopropyl)-4-oxo-3,4-dihydroquinazoline-6-carbonyl)-N3,N4-bis((1S,2R)-2-phenylcyclopropyl)pyrrolidine-3,4-dicarboxamide], the pEC50 was below 6.00. With `CCCCCCCCN1CC(C(=O)NCCCCCC)CN(Cc2ccc(C(=O)N3C[C@@H](C(=O)N[C@H]4C[C@@H]4c4ccccc4)[C@H](C(=O)N[C@H]4C[C@@H]4c4ccccc4)C3)cc2)C1=O` (stereo partly drawn) [Compound 178, (3S,4S)-1-(4-((5-(hexylcarbamoyl)-3-octyl-2-oxotetrahydropyrimidin-1 (2H)-yl)methyl)benzoyl)-N3,N4-bis((1S,2R)-2-phenylcyclopropyl)pyrrolidine-3,4-dicarboxamide], the pEC50 was 6.00 to 6.45. Turning to `CCCCCCCCCCCCCCC(=O)N[C@@H]1CN(C(=O)c2ccc(C(=O)N3C[C@@H](C(=O)N[C@H]4C[C@@H]4c4ccccc4)[C@H](C(=O)N[C@H]4C[C@@H]4c4ccccc4)C3)cc2)C[C@H]1OC` [Compound 154, (3S,4S)-1-(4-((3R,4R)-3-methoxy-4-pentadecanamidopyrrolidine-1-carbonyl)benzoyl)-N3,N4-bis((1S,2R)-2-phenylcyclopropyl) pyrrolidine-3,4-dicarboxamide], the pEC50 was 6.00 to 6.45.

`CCCCCCNC(=O)[C@@H](CCNC(=O)c1ccc(C(=O)N2C[C@@H](C(=O)N[C@H]3C[C@@H]3c3ccccc3)[C@H](C(=O)N[C@H]3C[C@@H]3c3ccccc3)C2)cc1)NC(=O)CCCCCC` [Compound 120, (3S,4S)-1-(4-(((R)-3-heptanamido-4-(hexylamino)-4-oxobutyl)carbamoyl)benzoyl)-N3,N4-bis((1S,2R)-2-phenylcyclopropyl)pyrrolidine-3,4-dicarboxamide]: the pEC50 was below 6.00. `CCCCCCCC(=O)N1CCN(S(=O)(=O)c2ccc(C(=O)N3C[C@@H](C(=O)N[C@H]4C[C@@H]4c4ccccc4)[C@H](C(=O)N[C@H]4C[C@@H]4c4ccccc4)C3)cc2)C[C@@H]1C(=O)NCCCCCC` [Compound 161, (3S,4S)-1-(4-(((R)-3-(hexylcarbamoyl)-4-octanoylpiperazin-1-yl)sulfonyl)benzoyl)-N3,N4-bis((1S,2R)-2-phenylcyclopropyl)pyrrolidine-3,4-dicarboxamide] gave a pEC50 below 6.00.

Take `CCCCCCNC(=O)[C@@H](CNC(=O)CCCCCC)NC(=O)c1ccc(C(=O)N2C[C@@H](C(=O)N[C@H]3C[C@@H]3c3ccccc3)[C@H](C(=O)N[C@H]3C[C@@H]3c3ccccc3)C2)cc1` [Compound 118, (3S,4S)-1-(4-(((R)-3-heptanamido-1-(hexylamino)-1-oxopropan-2-yl)carbamoyl)benzoyl)-N3,N4-bis((1S,2R)-2-phenylcyclopropyl) pyrrolidine-3,4-dicarboxamide]: the pEC50 is below 6.00. Consider `CCCCCCCCCCCCCNC(=O)N[C@H]1CN(c2nc3ccc(C(=O)N4C[C@@H](C(=O)N[C@H]5C[C@@H]5c5ccccc5)[C@H](C(=O)N[C@H]5C[C@@H]5c5ccccc5)C4)cc3o2)C[C@@H]1OC` [Compound 247, (3S,4S)-1-(2-((3S,4S)-3-methoxy-4-(3-tridecylureido)pyrrolidin-1-yl)benzo[d]oxazole-6-carbonyl)-N3,N4-bis((1S,2R)-2-phenylcyclopropyl)pyrrolidine-3,4-dicarboxamide], for which the pEC50 was below 6.00. Still for that read-out and setting: as for `CCCCCCCCCCCCCCNC(=O)[C@@H]1CN(S(=O)(=O)c2ccc(C(=O)N3C[C@@H](C(=O)N[C@H]4C[C@@H]4c4ccccc4)[C@H](C(=O)N[C@H]4C[C@@H]4c4ccccc4)C3)cc2)CCN1C(C)=O` [Compound 196, (3S,4S)-1-(4-(((S)-4-acetyl-3-(tetradecylcarbamoyl)piperazin-1-yl)sulfonyl)benzoyl)-N3,N4-bis((1S,2R)-2-phenylcyclopropyl)pyrrolidine-3,4-dicarboxamide], the figure is below 6.00; as for `CCCCCCCCCCCCCCC(=O)N[C@@H]1CN(C(=O)c2ccc(C(=O)N3C[C@@H](C(=O)N[C@H]4C[C@@H]4c4ccccc4)[C@H](C(=O)N[C@H]4C[C@@H]4c4ccccc4)C3)cc2)C[C@H]1O` [Compound 157, (3S,4S)-1-(4-((3R,4R)-3-hydroxy-4-pentadecanamidopyrrolidine-1-carbonyl)benzoyl)-N3,N4-bis ((1S,2R)-2-phenylcyclopropyl) pyrrolidine-3,4-dicarboxamide], 6.00 to 6.45. With `CCCCCCC(=O)N[C@@H](CNC(=O)c1ccc(C(=O)N2C[C@@H](C(=O)N[C@H]3C[C@@H]3c3ccccc3)[C@H](C(=O)N[C@H]3C[C@@H]3c3ccccc3)C2)cc1)C(=O)NCCc1ccc(F)cc1` [Compound 129, (3S,4S)-1-(4-(((S)-3-((4-fluorophenethyl)amino)-2-heptanamido-3-oxopropyl)carbamoyl)benzoyl)-N3,N4-bis((1S,2R)-2-phenylcyclopropyl)pyrrolidine-3,4-dicarboxamide], the pEC50 was 6.46 to 7.29.
